Measured values taken from patent US10335365B2, “Bladder cancer specific ligand peptides” (The Regents of the University of California, priority 2009, dated 2019).
Positions of bridges follow the written chain, without caps; N, C: chain ends. Non-standard residues stand in square brackets, D forms with d. No end group written: not given here.

Experiments:
5637 cells = assay: Flow cytometry binding affinity on 5637 cells; parameters: species or system human; settings: PLZ4-biotin with streptavidin-PE
Experimental: All of the following steps were done on ice. 5×10^5 5637 cells were washed 3 times with 1 ml cold PBS (pH 7.4)-BSA (1%), re-suspended with 300 μl cold BSA (5%)-PBS (pH 7.4), and then incubated for 1 hour on ice. The cells were centrifuged and suspended with 50 μl PLZ4-biotin solution at 800, 400, 200, 100, 50, 25, 10, 5, 2.5, 1, 0.1, and 0 μM, and incubated for 1 hour on ice. Cells treated without PLZ4-biotin was considered as a control. After washing 6 times with 1 ml cold PBS-Tween-20 (0.05%) buffer, cells were re-suspended with 50 μl streptavidin (SA)-PE (1:500 in PBS-BSA, 1%) (1 mg/ml, Invitrogen, Carlsbad, Calif.), incubated for 1 hour on ice, washed with PBS (pH 7.4) 3 times, re-suspended with 500 μl PBS (pH 7.4), and analyzed using a Coulter Epics XL-MCL flow cytometer (Beckman Coulter, Inc.). The experiment was repeated three times. The mean value was expressed in FIG. 4.
Next, it was determined if fluorescence cell sorting could be used to identify bladder cancer cells. PLZ4 peptide conjugated to biotin through hydrophilic linkers was synthesized. Biotinylated PLZ4 was then incubated with streptavidin-PE to generate PLZ4-PE conjugate through the strong binding of biotin and streptavidin. […] The binding affinity (Kd) is around 30 μM.

[1] = system: bladder TCC cell lines 5637, T24 and TCCSUP; assay: Whole cell bead binding assay, bladder TCC cell lines; parameters: species or system human; settings: peptide on OBOC beads; 5637, T24, TCCSUP
Experimental: The beads were washed extensively with double-distilled water and phosphate-buffered saline (PBS) before screening. Bladder cancer cells and normal urothelial cells were detached from culture dishes with trypsin/EDTA or a Detach kit (PromoCell, Heidelberg, Germany), washed with their corresponding culture medium, resuspended at 10^6 cells/ml and incubated with OBOC beads in Petri dishes in a humidified CO2 incubator at 37° C. with shaking (60 rpm). Beads bound by cells appeared as rosettes with a central bead covered by a layer(s) of cells under a microscope. The positive beads were picked with a pipette under inverted microscope, treated with Quanidine HCl (8M, 20 min) to remove cells and proteins on beads surface, and underwent a second round of incubation with the same cells to confirm the binding. Only those beads with cell bindings at both rounds were sent for the amino acid sequencing as previously described (Peng, et al., Nat Chem Biol, (2006) 2: 381-389).
Whole cell bead binding assay was used to screen libraries for peptides that bind bladder cancer cell cultures (FIG. 1). Approximately 150,000 library beads (peptides) were screened against each of 4 bladder cancer cell lines (three transitional cell carcinoma (TCC) lines: T24, TCCSUP and 5637, and one squamous cell line SCaBER). […]

[2] = system: primary bladder cancer cells from patients; assay: Whole cell bead binding assay, primary bladder cancer cells from patients; parameters: species or system human; settings: beads coated with PLZ4; fresh bladder cancer specimens
Experimental: Four bladder cancer cell lines including 5637 (HTB-9), SCaBER, TCCSUP (HTB-5), and T24 (HTB-4) were purchased from the American Type Culture Collection (Manassas, Va.). The isolation, characterization and maintenance of normal urothelial cells was previously described in detail (Bagai, et al., J Biol Chem, (2002) 277: 23828-23837). Normal peripheral blood mononuclear cells were prepared by using the Ficoll-Paque gradient method from peripheral blood of healthy donors. Bladder cancer tissue obtained from cystectomy was cut into pieces, digested with collagenase at 37° C. for 1-2 hours per the manufacturer's protocol, and filtered through a 40-μm strainer to make single cell suspension. Tumor cells were then isolated with Ficoll-Paque gradient method (800 g, 30 min at 4° C.). Informed consent was obtained from each patient or healthy donor before specimens were collected.
The beads were washed extensively with double-distilled water and phosphate-buffered saline (PBS) before screening. […]
The cell surface molecules on established cell lines in culture may not be the same as those molecules on primary bladder cancer cells. It was assessed if PLZ4 could bind to bladder cancer cells from patients. […]

K9TCC-PU-In = assay: Binding affinity by PLZ4-biotin / avidin-HRP on fixed K9TCC-PU-In cells; parameters: species or system canine; settings: restated in b239 without cell line, read-out: Kd50
Experimental: (§1) FIG. 8A-B. Binding affinity and biological effects of PLZ4 against canine TCC cell lines. A. Binding affinity of PLZ4 against K9TCC-PU and K9TCC-PU-In. Twenty thousands of K9TCC-PU and K9TCC-PU-In were seeded in 96 well plates. After culture for 24 hours, cells were fixed and incubated with different concentrations of PLZ4-biotin for 1.5 hours following avidin-HRP for another 1 hour. Cells treated with avidin-HRP only were served as background control. The color was developed using TMB substrate and read by ELISA readers. The experiment was performed in triplicates and repeated for 3 times. The mean value of the 3 experiments were shown. B. Biological effects of PLZ4 on canine TCC cell lines. Ten thousand K9TCC-PU-In and K9TCC-PU cells were seeded in the 96 well plates and treated with increasing concentrations of PLZ4 or PBS for 2 days. The cell proliferation assay was assessed by WST-8 assay per manufacturer's protocol. Cells treated with PBS were used as 100% control. Each group was performed in triplicate, repeated for 3 times. Mean values at each concentration are presented.
(§2) To further quantify the binding affinity, K9TCC-PU and K9TCC-PU-In cells were seeded in 96 well plates, fixed, and incubated with increasing concentrations of PLZ4-biotin followed by avidin-HRP. […]

5637 TCC cancer cells = assay: Bead binding to 5637 cells in urine at pH 6.0; parameters: species or system human; settings: urine at pH 6.0, 4 hours, 37° C.
Experimental: The acidic environment in urine may change the 3-D structure of ligands and affect ligand binding. Here it was determined if the cancer-specific beads could bind to 5637 TCC cancer cells in urine. Cells were incubated with beads in urine at pH 6.0 for 4 hours at 37° C. 4-hour incubation was used to mimic the in vivo urine retention in patients and to permit conformational changes and protease digestion.

K9TCC-PU = assay: Binding affinity by PLZ4-biotin / avidin-HRP on fixed K9TCC-PU cells; parameters: species or system canine; settings: restated in b239 without cell line, read-out: Kd50
Experimental: as §1, §2

Substance: cQDGRMGFc ([dC]QDGRMGF[dC]; disulfide 1-9 (inferred)) [PLZ4, bladder cancer-specific ligand peptide]
- Kd (5637 cells): ~30 µM
- binding to bladder TCC cell lines [1]: bound to all three bladder TCC cell lines
- binding to primary bladder cancer cells from patients [2]: could bind to cells from all 5 fresh bladder cancer specimens
- Kd (K9TCC-PU-In): 10.3 µM
- binding to 5637 cells in urine (5637 TCC cancer cells): still able to bind cells in urine
- Kd (K9TCC-PU): 21.3 µM
